Experimental data from patent US10946020B2, “Compositions and methods for treating cancer” (University of Virginia Patent Foundation, priority 2016, dated 2021).

Legend:
[1] = target: DGKα (Homo sapiens, UniProt P23743); assay: DGKα kinase assay with liposomes and purified enzyme; assay type: biochemical; conditions: purified enzyme, liposomes; highest drug concentration 100 μM
Protocol: To obtain purified protein, 293T cells were cultured in DMEM containing 5% fetal calf serum and 1% penicillin/streptomycin (GIBCO™, Thermo Fisher Scientific, Waltham, Mass., United States of America). The cells were transiently transfected with 40 μg of pcDNA3-FLAG-DGKα plasmid/plate. The transfection was done using lipofectamine 2000 at a 2:1 ratio of DNA:lipofectamine. The cells were harvested and homogenized in lysis buffer (10 mM Na2HPO4, pH 7.4, 50 mM β-glucopyranose, 50 mM NaF, 1 mM EDTA, 1 mM EGTA, 0.02% Triton X-100, phenylmethylsulfonyl fluoride, leupeptine, and pepstatin). The cell homogenate was centrifuged at 16,000×g at 4° C. for 10 minutes. The supernatant was immunoprecipitated with anti-FLAG (M2) beads for 2 hours at 4° C. The beads were packed onto a screening column and washed five times with the lysis buffer. The protein was eluted with five successive 200 μl fractions of 0.5 mg/ml of FLAG peptide (LifeTein, LLC, Somerset, N.J., United States of America). The elution fractions containing DGKα were combined and dialyzed three times against 10 mM Na2HPO4 (pH 7.4), and 50 mM β-glucopyranose, 50 mM NaF, 1 mM EDTA, and 1 mM EGTA. The purified DGKs were quantified with UV absorbance and by comparing DGKα bands with bovine serum albumin standards on Coomassie-blue stained SDS-PAGE gels. […]

[2] = test system: geranylgeranyltransferase type 1 (GGTase I); assay: unprenylated Rap1A immunoblot; assay type: cell-based; conditions: various GBM cells
Excerpt: (§1) Further, based on increases in unprenylated ras-related protein Rap1A in various GBM cells, it appears that ritanserin inhibits geranylgeranyltransferase type 1 (GGTase I).

[3] = test system: U251 GBM and VMM39 melanoma cell lines; assay: Annexin V cell death assay (flow cytometry); assay type: cell-based, human; conditions: compared to controls
Protocol: (§2) Single dye controls were used for compensation. […] Experiments were repeated several times per cell type.
To determine the mechanism of ritanserin cytotoxicity, ritanserin-treated cells were assayed for Annexin V-positivity as well as cellular permeability (with DNA dye 7-AAD).

[4] = test system: B16 melanoma line; assay: cell growth suppression, live cell count; assay type: cell-based; conditions: Mus musculus, B16, 96 h; single dose, live cells four days post-treatment
[5] = test system: HIF-1α; assay: HIF-1α binding site reporter dual luciferase assay; assay type: cell-based, human; conditions: U251, 20 μM ritanserin vs vehicle
Protocol: (§3) mTOR promoter reporter-RLuc or HIF-1α binding site-FLuc plasmids were transfected into serum-starved U251 and VMM39 one day after cell plating at 60-80% confluency using Fugene HD at 3:1 (Promega Corporation, Fitchburg, Wis., United States of America). Cells were fed several hours post-transfection and ritanserin was added. Cells were lysed after 36-48 hours and assayed with the Dual-Luciferase Reporter assay system kit (Promega Corporation, Fitchburg, Wis., United States of America) and Promega GloMax® 20/20 luminometer (Promega Corporation, Fitchburg, Wis., United States of America). Results were double-normalized using control empty vectors pRL and pGL3.
(§4) To compare to previous findings that DGKα inhibition affects mTOR transcription, U251 and VMM39 were transfected with an mTOR promoter reporter and treated with ritanserin or vehicle. […] Ritanserin therefore appears to mimic R59022's effects on known DGKα targets in the mTOR and HIF-1α signaling pathways. See Dominguez et al., 2013.

[6] = test system: G88 mesenchymal GBM stem cell line; assay: intracranial G88 mesenchymal GBM stem cell xenograft survival; assay type: in vivo, mice; conditions: 50 mg/kg daily, started six days after implantation; vehicle 17.5 days
Protocol: (§5) Intracranial surgical implantation of tumor was as previously described. See Kefas et al., 2013. In brief, 400,000 U251 human glioblastoma or 50,000 GL261 mouse glioma suspended in 4 μL of serum-free DMEM were injected into anesthetized mice through a burr hole placed […] to the bregma. Treatment for 8-9 mice per group began 6-7 days post-tumor implantation via oral gavage and continued daily. Magnetic resonance images were taken at 3 weeks post-tumor implantation to assess tumor volume, and volumes were calculated as previously described. See Kefas et al., 2013. Mice were euthanized at 20% weight loss or with the first sign of neurological impairment.
(§6) Glioblastomas can be categorized into four different subtypes based on gene expression patterns and clinical characterization. […] In particular, median survival increased from 17.5 days to 28.5 days in mice with xenografts from a G88 mesenchymal GBM stem cell line.

[7] = test system: VMM39 melanoma line; assay: cell growth suppression, live cell count; assay type: cell-based; conditions: Homo sapiens, VMM39, 96 h; single dose, live cells four days post-treatment
[8] = test system: U251 human glioblastoma cells; assay: orthotopic intracranial U251 xenograft survival; assay type: in vivo, athymic nu/nu mice; conditions: 50 mg/kg daily oral gavage, started one week after injection
Protocol: as §5
Athymic nu/nu mice were injected with U251 cells and one week later began daily oral gavage treatment.

[9] = test system: Immortalized astrocytes; assay: viability of immortalized astrocytes; assay type: cell-based
Excerpt: as §2

[10] = test system: NF-κB; assay: NF-κB luciferase assay; assay type: cell-based; conditions: two mesenchymal GBM cell lines (G2, G88)
Protocol: (§7) Since radiation is a frontline treatment for GBM, the combination of ritanserin treatment and radiotherapy was tested. The radiosensitization of two different mesenchymal GBM stem cells, including a radioresistant cell type (i.e., G88 cells) is shown in FIGS. 9A and 9B. […] Chou-Talalay analysis indicated synergy. Ritanserin treatment also appears to affect downstream regulators of the radiation response. NF-κB has been indicated as a factor in radioresistance. Thus, the effect of ritanserin on NF-κB expression was also measured in two mesenchymal GBM cell lines using a NF-κB luciferase assay.

[11] = test system: VMM39 human melanoma cells; assay: subcutaneous melanoma tumor model; assay type: in vivo, athymic nu/nu mice; conditions: 50 mg/kg, compared to vehicle and 10 mg/kg ritanserin
Protocol: For subcutaneous tumors, 250,000 VMM39 human melanoma cells were injected subcutaneously into the left flank. After two weeks, tumors were measured daily using electronic calipers and tumor volume calculated. Mice were euthanized when tumors were greater than […] in any dimension or greater than 1000 mm^3 in volume.
(§8) DGKα inhibition decreases T-cell anergy. Thus, it is believed that a syngeneic, immunocompetent tumor model could show a stronger survival benefit. GL261 mouse glioma cells were implanted intracranially and treatment begun six days later. Ritanserin improved median survival to 64 days versus 36 days with vehicle. […] Ritanserin treatment also yielded decreases in tumor size and prolonged survival in other cell lines and xenograft models.

[12] = previous studies; cited from earlier work
[13] = previous studies (Leysen et al., 1985); cited from earlier work
[14] = test system: G2 mesenchymal GBM stem cell line; assay: intracranial G2 mesenchymal GBM stem cell xenograft survival; assay type: in vivo, mice; conditions: 50 mg/kg daily oral gavage vs vehicle
[15] = test system: lung (A549) and pancreatic (MPanc-96) carcinoma cells; assay: ritanserin sensitivity after epithelial-mesenchymal transition; assay type: cell-based; conditions: EMT induced with TNF-alpha and TGF-beta; 15 μM (lung), 10 μM (pancreatic)
Excerpt: Thus it appears that the mesenchymal cancer phenotype can be preferentially targeted with ritanserin in GBM and in other cancers, as well.

[16] = test system: P70 S6K phosphorylation at T389/T421; assay: dot-blot phospho-proteomics assay in U251; assay type: cell-based, human; conditions: U251, 15 μM ritanserin, lysed at 24 hours
Protocol: (§9) Immunoblotting was performed as previously described. […] Antibodies were obtained from Cell Signaling Technology (Danvers, Mass., United States of America). Cells were lysed 24-72 hours post-treatment in 1× lysis buffer. The Human Phospho-Kinase Array kit (R&D Systems, Minneapolis, Minn., United States of America) was used to identify ritanserin targets. Immunoblots were performed with multiple replicates.
(§10) A dot-blot proteomics assay was used to investigate ritanserin downstream targets. U251 treated with 15 μM ritanserin were lysed at 24 hours. Several target proteins were substantially changed with ritanserin treatment. HSP60 decreased to 10% of baseline. Heat shock proteins are molecular targets in glioblastoma, and their loss prevents the unfolded protein response. See Ampie et al., 2015. HIF-1a and possibly mTOR up-regulate HSP60. P70 S6K phosphorylation at T389/T421 was decreased, as expected given DGKα activation of mTOR.

[17] = test system: HSP60; assay: dot-blot phospho-proteomics assay in U251; assay type: cell-based, human; conditions: U251, 15 μM ritanserin, lysed at 24 hours
Protocol: as §9, §10

[18] = test system: p53 S15; assay: immunoblot of p53 S15 phosphorylation; assay type: cell-based, human; conditions: extracts from U251 and VMM39 cell lines
Protocol: as §9
Decreased p53 S15 can cause chemosensitization to other cytotoxic reagents. p53 is hyper-phosphorylated after serine 15 phosphorylation in DNA-damaged cells as an […], pro-transcriptional pathway, and antagonism of S15 phosphorylation is associated with increasing sensitivity to DNA-damaging agents. See Loughery et al., 2014; and Wittlinger et al., 2007. Immunoblots of extracts from both U251 and VMM39 cell lines confirmed that ritanserin decreases S15 phosphorylation.

[19] = test system: U251 GBM line; assay: cell growth suppression, live cell count; assay type: cell-based; conditions: Homo sapiens, U-251, 96 h; single dose, live cells four days post-treatment
Protocol: as §2
(§11) Several cancer cell lines were tested in vitro to determine whether ritanserin was cytotoxic. A single dose of ritanserin was sufficient to suppress cell growth in GBM lines U251 (human), GL261 (mouse), and JWL578 (human GBM stem cell line) with IC50s 5-10 μM, very similar to previous results with R59022. See also, Dominguez et al., 2013. […] Data from alamarBlue assays, a measure of cellular viability, provided similar IC50s. Immortalized astrocytes were viable above 20 μM ritanserin.

[20] = test system: JWL578 GBM stem cell line; assay: cell growth suppression, live cell count; assay type: cell-based; conditions: Homo sapiens, 96 h; single dose, live cells four days post-treatment
Protocol: as §2, §11

[21] = test system: GL261 GBM line; assay: cell growth suppression, live cell count; assay type: cell-based; conditions: Mus musculus, GL261, 96 h; single dose, live cells four days post-treatment
Protocol: as §2, §11

[22] = test system: mTOR promoter; assay: mTOR promoter reporter dual luciferase assay; assay type: cell-based, human; conditions: U251 and VMM39, 20 μM ritanserin vs vehicle
Protocol: as §3, §4

[23] = target: serotonin (5-hydroxytryptamine, 5-HT) subtype 5-HT2; conditions: read-out: Ki as 5-HT2 antagonist; cited from earlier work
[24] = test system: RhoA; assay: RhoA ELISA; assay type: cell-based; conditions: G2 and G88 mesenchymal GBM cells
Excerpt: as §1

[25] = test system: GL261 mouse glioma cells; assay: syngeneic intracranial GL261 glioma model; assay type: in vivo, C57BL/6 mice
Protocol: as §5, §8

[26] = test system: mesenchymal GBM cell lines; assay: ritanserin treatment of 11 GBM cell lines of various sub-types; assay type: cell-based; conditions: in vitro
Excerpt: as §6

[27] = test system: mesenchymal GBM stem cells (G2, G88); assay: radiosensitization, soft agar colony assay; assay type: cell-based; conditions: 1.25 μM ritanserin, 4 Gy radiation, colonies after two weeks
Protocol: as §7

DGKα, sequence (P23743 whole entry, species assumed): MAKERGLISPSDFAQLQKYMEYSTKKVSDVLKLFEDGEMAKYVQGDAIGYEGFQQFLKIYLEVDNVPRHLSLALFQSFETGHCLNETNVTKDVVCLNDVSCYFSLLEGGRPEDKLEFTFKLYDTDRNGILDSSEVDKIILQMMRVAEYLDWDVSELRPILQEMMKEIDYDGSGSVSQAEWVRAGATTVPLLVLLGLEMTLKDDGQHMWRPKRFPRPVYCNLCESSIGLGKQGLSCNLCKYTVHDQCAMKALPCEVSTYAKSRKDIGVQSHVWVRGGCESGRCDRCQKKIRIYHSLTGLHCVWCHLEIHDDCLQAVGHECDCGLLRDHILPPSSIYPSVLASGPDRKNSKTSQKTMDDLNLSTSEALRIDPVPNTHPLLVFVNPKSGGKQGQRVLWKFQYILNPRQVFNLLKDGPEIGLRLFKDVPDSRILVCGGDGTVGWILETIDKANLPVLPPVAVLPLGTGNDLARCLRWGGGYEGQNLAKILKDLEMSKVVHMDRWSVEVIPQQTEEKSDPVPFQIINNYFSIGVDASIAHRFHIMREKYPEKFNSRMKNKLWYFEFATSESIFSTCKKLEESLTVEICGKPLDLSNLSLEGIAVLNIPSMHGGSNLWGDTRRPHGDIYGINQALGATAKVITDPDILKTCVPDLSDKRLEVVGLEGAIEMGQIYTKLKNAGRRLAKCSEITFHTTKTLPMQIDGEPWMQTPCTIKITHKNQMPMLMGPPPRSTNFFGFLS

With `Cc1nc2sccn2c(=O)c1CCN1CCC(=C(c2ccccc2)c2ccc(F)cc2)CC1` [R59022] as the compound, how does the IC50 [1] read?
The IC50 was 20 µM.

With `Cc1nc2sccn2c(=O)c1CCN1CCC(=C(c2ccc(F)cc2)c2ccc(F)cc2)CC1` [ritanserin, 6-[2-[4-[bis(4-fluorophenyl)methylidene]piperidin-1-yl]ethyl]-7-methyl-[1,3]thiazolo[3,2-a]py-rimidin-5-one] as the compound, how does the “GGTase I inhibition inferred from unprenylated Rap1A” value [2] read?
Its value is “inhibits”.

What about the “Annexin V positivity” value [3] of the same compound?
Its value is “increased Annexin V”.

What about the IC50 [4] of the same compound?
The IC50 was 10 to 15 µM.

What about the HIF-1α reporter activity [5] of the same compound?
The HIF-1α reporter activity was “loss of HIF-1α reporter activity”.

What about the median survival [6] of the same compound?
Its median survival is 28.5 days.

What about the IC50 [7] of the same compound?
Its IC50 is 10 to 15 µM.

What about the survival [8] of the same compound?
The survival was “increased survival significantly”.

What about the “ritanserin concentration at which astrocytes were viable” value [9] of the same compound?
The value was “above 20 μM”.

What about the NF-κB expression [10] of the same compound?
The NF-κB expression was “decreased NF-κB expression”.

What about the tumor formation [11] of the same compound?
The tumor formation was “delayed tumor formation”.

What about the oral bioavailability [12] of the same compound?
The oral bioavailability was “orally bioavailable”.

And the brain exposure [13]?
The brain exposure was “reach the brain in meaningful concentrations”.

What about the median survival [14] of the same compound?
The median survival was “increased”.

And the “sensitivity to ritanserin after EMT” value [15]?
Its value is “more sensitive”.

What about the “P70 S6K phosphorylation at T389/T421” value [16] of the same compound?
The value was “decreased”.

What about the HSP60 level [17] of the same compound?
Its HSP60 level is 10 % of baseline.

What about the “p53 S15 phosphorylation” value [18] of the same compound?
Its value is “decreases”.

What about the IC50 [19] of the same compound?
Its IC50 is 5 to 10 µM.

What about the IC50 [20] of the same compound?
The IC50 was 5 to 10 µM.

And the IC50 [21]?
The IC50 was 5 to 10 µM.

And the mTOR promoter activity [22]?
The mTOR promoter activity was “strongly decreased”.

And the Ki [23]?
Its Ki is 0.00039 µM.

And the RhoA expression [24]?
Its RhoA expression is “inhibit RhoA expression”.

And the median survival ([25]; 50 mg/kg daily oral, started six days after implantation, vehicle 36 days)?
The median survival was 64 days.

And the “tumor size by magnetic resonance imaging” value ([25]; three weeks after implantation, vs vehicle)?
The value was “decreased tumor size”.

What about the “sensitivity of mesenchymal GBM cell lines relative to other subtypes” value [26] of the same compound?
The value was “three to four times more sensitive”.

What about the “radiosensitization, colony number” value [27] of the same compound?
Its value is “clear radiosensitization effect”.

What about the IC50 [1] of the same compound?
Its IC50 is 9 µM.
